{"source": "paper PMC7803991", "about": "“Prediction of pharmacological activities from chemical structures with graph convolutional neural networks” (Scientific Reports, 2021)", "molecular_target": "T1, serotonin transporter (SERT) (Homo sapiens, UniProt P31645)", "T1 construct": "gene SLC6A4", "T1 sequence (P31645 whole entry)": "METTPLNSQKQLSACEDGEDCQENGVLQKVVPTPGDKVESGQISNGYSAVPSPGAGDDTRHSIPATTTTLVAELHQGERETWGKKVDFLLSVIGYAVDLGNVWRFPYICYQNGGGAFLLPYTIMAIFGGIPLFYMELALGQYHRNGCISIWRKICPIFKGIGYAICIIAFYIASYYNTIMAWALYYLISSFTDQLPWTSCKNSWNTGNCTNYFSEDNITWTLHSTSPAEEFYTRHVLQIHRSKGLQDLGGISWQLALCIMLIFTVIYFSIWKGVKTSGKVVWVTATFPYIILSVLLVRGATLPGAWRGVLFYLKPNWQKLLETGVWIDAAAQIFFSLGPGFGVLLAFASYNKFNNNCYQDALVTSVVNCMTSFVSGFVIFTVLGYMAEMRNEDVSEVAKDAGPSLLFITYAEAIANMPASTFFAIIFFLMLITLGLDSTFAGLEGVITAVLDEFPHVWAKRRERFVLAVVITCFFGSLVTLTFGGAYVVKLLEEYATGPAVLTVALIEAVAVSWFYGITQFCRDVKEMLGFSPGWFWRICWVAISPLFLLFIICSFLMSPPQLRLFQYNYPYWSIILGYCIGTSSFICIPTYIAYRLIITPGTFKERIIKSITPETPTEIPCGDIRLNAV", "assay": "cell-based", "note": "Structures can show the parent of a compound that is named as a salt.", "data": [{"smiles": "Clc1ccc2sc(C3CCNCC3)nc2c1", "note": "[compound 1, 5-chloro-2-(piperidin-4-yl)-1,3-benzothiazole hydrochloride]", "values": [{"measurement": "IC50", "value": 6.24, "unit": "nM"}]}]}
